Test results as given in US11667649B2, “Heteroaromatic macrocyclic ether chemotherapeutic agents” (Nuvalent, Inc., priority 2020, dated 2023).

Key:
[1] = target: T1, ALK L1196M/G1202R kinase domain (Homo sapiens, UniProt Q9UM73, G1202R/L1196M); assay: Biochemical kinase assay, ALK L1196M/G1202R; settings: 2 mM ATP substrate solution, read-out: Ki^app ALK-L1196M-G1202R
T1 construct: TRKA-wt (1 nM, BPS Bio, 40280) kinase domains in buffer; purchased SignalChem A19-12NG
Procedure: (§1) First, 250 nL of compound dissolved in DMSO (100-fold of the desired concentration) was dispensed into a 384-well plate. A 12.5 μL substrate solution containing ATP (2 mM) and fluorogenic phosphorylation substrate AQT0101 (26 μM for ALK and ROS1, AssayQuant) or AQT0104 (26 μM for TRKA, AssayQuant) in buffer (50 mM HEPES pH 7.5, 0.01% Brij-35, 0.5 mM EGTA, 10 mM MgCl2) was added and mixed thoroughly. Then, a 12.5 μL kinase solution containing ALK-wt (1.5 nM, Carna, 08-518), ALK ALK L1196M/G1202R (3 nM, SignalChem, A19-12NG), ROS1-wt (0.6 nM, Carna, 08-163), ROS1-G2032R (0.5 nM, SignalChem, R14-12BG), or TRKA-wt (1 nM, BPS Bio, 40280) kinase domains in buffer ([…] HEPES pH 7.5, 0.01% Brij-35, 2% glycerol, 0.4 mg/mL BSA, 0.5 mM EGTA, and 10 mM MgCl2) was added and mixed thoroughly. The plate was sealed and read by SpectraMax Paradigm at λ=485 nm every 2 minutes for 120 minutes at 30° C. Initial rates of reaction (v) were calculated from the change in fluorescence intensity over time during the initial, linear portion of the reaction. Finally, apparent inhibitory constants (Ki^app) were determined from regression of v and I (inhibitor concentration) to Morrison Equation (E=enzyme concentration): […]

ALK-wt kinase domain = target: T2, ALK-wt kinase domain (Homo sapiens, UniProt Q9UM73); assay: Biochemical kinase assay, ALK-wt; settings: 2 mM ATP substrate solution, read-out: Ki^app ALK-wt
T2 construct: TRKA-wt (1 nM, BPS Bio, 40280) kinase domains in buffer; purchased Carna 08-518
Procedure: as §1

ROS1-wt kinase domain = target: T3, ROS1-wt kinase domain (Homo sapiens, UniProt P08922); assay: Biochemical kinase assay, ROS1-wt; settings: 2 mM ATP substrate solution, read-out: Ki^app ROS1-wt
T3 construct: TRKA-wt (1 nM, BPS Bio, 40280) kinase domains in buffer; purchased Carna 08-163
Procedure: as §1

TRKA-wt kinase domain = target: T4, TRKA-wt kinase domain (Homo sapiens, UniProt P04629); assay: Biochemical kinase assay, TRKA-wt; settings: 2 mM ATP substrate solution, read-out: Ki^app TRKA-wt
T4 construct: TRKA-wt (1 nM, BPS Bio, 40280) kinase domains in buffer; purchased BPS Bio 40280
Procedure: as §1

[2] = target: T5, ROS1-G2032R kinase domain (Homo sapiens, UniProt P08922, G2032R); assay: Biochemical kinase assay, ROS1-G2032R; settings: 2 mM ATP substrate solution, read-out: Ki^app ROS1-G2032R
T5 construct: TRKA-wt (1 nM, BPS Bio, 40280) kinase domains in buffer; purchased SignalChem R14-12BG
Procedure: as §1

| SMILES | Ki [1] | Ki (ALK-wt kinase domain) | Ki (ROS1-wt kinase domain) | Ki (TRKA-wt kinase domain) | Ki [2] |
| --- | --- | --- | --- | --- | --- |
| CCc1noc2c1-c1cnc(N)c(c1)O[C@H](C)c1cc(F)ccc1-c1nncn1C2 [Compound 120] | 50 to 500 nM | < 50 nM | < 50 nM | 50 to 500 nM | 50 to 500 nM |
| C[C@H]1Oc2cc(cnc2N)-c2c(C#N)nnn2Cc2cccnc2-c2ccc(F)cc21 [Compound 25] | 50 to 500 nM | < 50 nM | < 50 nM | > 500 nM | 50 to 500 nM |
| CCn1nc(C(C)C)c2c1-c1cnc(N)c(c1)O[C@H](C)c1cc(F)ccc1-c1nn(C)cc1C2 [Compound 153] | < 50 nM | < 50 nM | < 50 nM | < 50 nM | < 50 nM |
| CCc1noc2c1-c1cnc(N)c(c1)O[C@H](C)c1cc(F)cc(F)c1-c1nn(C)cc1C2 [Compound 90] | < 50 nM | < 50 nM | < 50 nM | 50 to 500 nM | < 50 nM |
| CCn1ncc2c1-c1cnc(N)c(c1)O[C@H](C)c1cc(F)ccc1-c1nc(C)cn1C2 [Compound 45] | < 50 nM | < 50 nM | < 50 nM | < 50 nM | < 50 nM |
| CCc1nn(C)c2c1-c1cnc(N)c(c1)OCc1cc(F)ccc1-n1nc(C)cc1C2 [Compound 55] | < 50 nM | < 50 nM | < 50 nM | 50 to 500 nM | < 50 nM |
| C[C@H]1Oc2cc(cnc2N)-c2c(nn(C)c2C#N)Cc2cccnc2-c2ccc(F)cc21 [Compound 112] | < 50 nM | < 50 nM | < 50 nM | 50 to 500 nM | < 50 nM |
| C[C@H]1Oc2cc(cnc2N)-c2c(nnn2CC2CC2)Cc2cccnc2-c2ccc(F)cc21 [Compound 116] | < 50 nM | < 50 nM | < 50 nM | 50 to 500 nM | < 50 nM |
| CCn1ncc2c1-c1cnc(N)c(c1)O[C@H](C)c1cc(F)ccc1-c1nn(C)c(Cl)c1C2 [Compound 28] | < 50 nM | < 50 nM | < 50 nM | < 50 nM | < 50 nM |
| CCc1onc2c1-c1cnc(N)c(c1)O[C@H](C)c1cc(F)ccc1-c1nn(C)cc1C2 [Compound 152] | < 50 nM | < 50 nM | < 50 nM | < 50 nM | < 50 nM |
| CC1Oc2cc(cnc2N)-c2c(cnn2C2CCC2)Cn2ccnc2-c2ccc(F)cc21 (stereo not shown) [Compound 37] | < 50 nM | < 50 nM | < 50 nM | 50 to 500 nM | < 50 nM |
| CCn1ncc2c1-c1cnc(N)c(c1)OC(C)c1cc(F)ccc1-c1ccncc1C2 (stereo not shown) [Compound 36] | < 50 nM | < 50 nM | < 50 nM | 50 to 500 nM | < 50 nM |
| CCn1ncc2c1-c1cnc(N)c(c1)OCc1cc(F)ccc1-n1nc(Cl)cc1C2 [Compound 75] | < 50 nM | < 50 nM | < 50 nM | 50 to 500 nM | < 50 nM |
| C[C@H]1Oc2cc(cnc2N)-c2c(C#N)nnn2Cc2cn(C)nc2-c2ccc(F)cc21 [Compound 24] | < 50 nM | < 50 nM | < 50 nM | > 500 nM | 50 to 500 nM |
| Cc1nc(C#N)c2n1Cc1cccnc1-c1ccc(F)cc1[C@@H](C)Oc1cc-2cnc1N [Compound 18] | < 50 nM | < 50 nM | < 50 nM | > 500 nM | < 50 nM |

The remaining lines, values ahead:

| Ki [1] | Ki (ALK-wt kinase domain) | Ki (ROS1-wt kinase domain) | Ki (TRKA-wt kinase domain) | Ki [2] | SMILES |
| --- | --- | --- | --- | --- | --- |
| < 50 nM | < 50 nM | < 50 nM | 50 to 500 nM | < 50 nM | CCn1nc(Cl)c2c1-c1cnc(N)c(c1)O[C@H](C)c1cc(F)ccc1-c1nn(C)cc1C2 [Compound 73] |
| < 50 nM | < 50 nM | < 50 nM | < 50 nM | < 50 nM | CCc1nn(C)c2c1-c1cnc(N)c(c1)O[C@H](C)c1cc(F)ccc1-c1nn(C)cc1C2 [Compound 171] |
| < 50 nM | < 50 nM | < 50 nM | 50 to 500 nM | < 50 nM | CCn1ncc2c1-c1cnc(N)c(c1)O[C@H](C)c1cc(F)ccc1-c1nn(C(C)(C)C)cc1C2 [Compound 150] |
| < 50 nM | < 50 nM | < 50 nM | > 500 nM | < 50 nM | CCn1ncc2c1-c1cnc(N)c(c1)OCc1cc(F)ccc1-c1nc(C)sc1C2 [Compound 89] |
| < 50 nM | < 50 nM | < 50 nM | > 500 nM | < 50 nM | C[C@H]1Oc2cc(cnc2N)-c2c(cnn2CC(F)F)Cc2cn(C)nc2-c2ccc(F)cc21 [Compound 22] |
| < 50 nM | < 50 nM | < 50 nM | > 500 nM | < 50 nM | Cc1nn(CC(F)F)c2c1Cc1cn(C)nc1-c1ccc(F)cc1[C@@H](C)Oc1cc-2cnc1N [Compound 79] |
| < 50 nM | < 50 nM | < 50 nM | 50 to 500 nM | < 50 nM | CCn1nnc2c1-c1cnc(N)c(c1)O[C@H](C)c1cc(F)ccc1-c1nc(C)sc1C2 [Compound 78] |
| < 50 nM | < 50 nM | < 50 nM | 50 to 500 nM | < 50 nM | CCn1ncc2c1-c1cnc(N)c(c1)OC(C)c1cc(F)ccc1-c1ncncc1C2 (stereo not shown) [Compound 42] |
| < 50 nM | < 50 nM | < 50 nM | < 50 nM | < 50 nM | CCn1ncc2c1-c1cnc(N)c(c1)O[C@H](C)c1cc(F)ccc1-n1nc(OC)cc1C2 [Compound 98] |
| < 50 nM | < 50 nM | < 50 nM | < 50 nM | < 50 nM | CCn1ncc2c1-c1cnc(N)c(c1)O[C@H](C)c1cc(F)ccc1-c1nn(C)c(OC)c1C2 [Compound 157] |
| < 50 nM | < 50 nM | < 50 nM | > 500 nM | < 50 nM | C[C@H]1Oc2cc(cnc2N)-c2c(C#N)nn(C)c2Cc2cc(F)cnc2-c2ccc(F)cc21 [Compound 105] |
| < 50 nM | < 50 nM | < 50 nM | > 500 nM | < 50 nM | Cc1cc2n(n1)-c1ccc(F)cc1COc1cc(cnc1N)-c1c(cnn1CC1CC1)C2 [Compound 126] |
| < 50 nM | < 50 nM | < 50 nM | < 50 nM | < 50 nM | CCc1noc2c1-c1cnc(N)c(c1)O[C@H](C)c1cc(F)ccc1-c1nn(C)cc1C2 [Compound 19] |
| < 50 nM | < 50 nM | < 50 nM | 50 to 500 nM | < 50 nM | C[C@H]1Oc2cc(cnc2N)-c2c(cnn2CC2CC2)Cc2cccnc2-c2ccc(F)cc21 [Compound 137] |
| < 50 nM | < 50 nM | < 50 nM | 50 to 500 nM | < 50 nM | CCn1nnc2c1-c1cnc(N)c(c1)O[C@H](C)c1cc(F)ccc1-n1nc(C(F)(F)F)cc1C2 [Compound 107] |
| < 50 nM | < 50 nM | < 50 nM | > 500 nM | < 50 nM | C[C@H]1Oc2cc(cnc2N)-c2c(cnn2CC(F)F)Cc2cc(C(F)(F)F)nn2-c2ccc(F)cc21 [Compound 84] |
| < 50 nM | < 50 nM | < 50 nM | > 500 nM | < 50 nM | Nc1ncc2cc1OCc1cc(F)ccc1-n1nc(Cl)cc1Cc1nnn(CC3CC3)c1-2 [Compound 110] |
| < 50 nM | < 50 nM | < 50 nM | 50 to 500 nM | < 50 nM | C[C@H]1Oc2cc(cnc2N)-c2c(CC(F)F)nn(C)c2Cc2cc(C(F)F)nn2-c2ccc(F)cc21 [Compound 180] |
| < 50 nM | < 50 nM | < 50 nM | < 50 nM | < 50 nM | CCc1ncn2c1-c1cnc(N)c(c1)O[C@H](C)c1cc(F)ccc1-c1nn(C)cc1C2 [Compound 50] |
| < 50 nM | < 50 nM | < 50 nM | 50 to 500 nM | < 50 nM | C[C@H]1Oc2cc(cnc2N)-c2c(nn(C)c2C2CCC2)Cc2ccnn2-c2ccc(F)cc21 [Compound 174] |
